Tests used:
[1] = molecular target: T1, protein tyrosine phosphatase SHP2 (Homo sapiens, UniProt Q06124); test: SHP2 inhibition (specificity); type: biochemical; conditions: concentrations up to 1 mM
T1 sequence (Q06124 1-593): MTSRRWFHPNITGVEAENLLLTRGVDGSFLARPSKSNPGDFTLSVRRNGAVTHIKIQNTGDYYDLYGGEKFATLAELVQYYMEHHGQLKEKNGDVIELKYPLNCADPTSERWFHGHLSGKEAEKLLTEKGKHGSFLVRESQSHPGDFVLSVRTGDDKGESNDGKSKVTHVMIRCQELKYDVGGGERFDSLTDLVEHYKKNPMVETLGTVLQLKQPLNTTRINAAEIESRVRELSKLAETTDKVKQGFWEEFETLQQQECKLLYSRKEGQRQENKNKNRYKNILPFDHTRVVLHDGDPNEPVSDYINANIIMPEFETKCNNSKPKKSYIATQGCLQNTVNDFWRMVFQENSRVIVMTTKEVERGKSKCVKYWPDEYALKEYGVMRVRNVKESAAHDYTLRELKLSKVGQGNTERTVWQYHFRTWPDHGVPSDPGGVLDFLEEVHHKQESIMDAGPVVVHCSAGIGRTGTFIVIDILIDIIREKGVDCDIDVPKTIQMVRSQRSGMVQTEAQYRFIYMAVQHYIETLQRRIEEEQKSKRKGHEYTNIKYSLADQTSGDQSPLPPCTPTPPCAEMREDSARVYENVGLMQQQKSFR

STAT5 dimer = test: Gel shift assay (EMSA) of STAT5 DNA binding; type: biochemical, murine; conditions: BaF3/FLT3-ITD nuclear extract
Procedure: Nuclear extracts and cytoplasmic extracts were prepared from BaF3 FLT3-ITD cells using the Nuclear Extraction kit (Active Motif, Carlsbad, Calif., USA) according to the manufacturer's protocol.
A gel shift assay was conducted using a double-stranded, biotin-labeled oligonucleotide probe containing the consensus binding site for STAT5 (sense strand, 5′-[…]-3′), using the Gelshift Chemiluminescent EMSA kit (Active Motif) according to the manufacturer's protocol. Protein-DNA complexes were resolved on a nondenaturing polyacrylamide gel, transferred to a positively charged nylon membrane, and cross-linked to a membrane using the UV-light cross-linker. After blocking, the membrane was incubated with blocking buffer containing streptavidin conjugated to HRP. After washing, protein-DNA complexes were detected using a chemi-luminescent substrate (Active Motif).

[2] = system: phosphorylated STAT5 dimers; test: ELISA-based STAT5 transcription factor assay of (STAT5)2-DNA complexes; type: biochemical, murine; conditions: cell-free, nuclear extract incubated 1 h at room temperature
Procedure: As an additional confirmation for the mode of action of the STAT5-binding fragments, we finally investigated their potential to interfere directly with the binding of phosphorylated STAT5 dimers to the target DNA sequences of the transcription factor. […] (FIGS. 6C, D) Nuclear extracts and cytoplasmic extracts were prepared from BaF3 FLT3-ITD cells using the Nuclear Extraction kit (Active Motif, Carlsbad, Calif., USA) according to the manufacturer's protocol. STAT5 activity was determined in nuclear protein extracts (20 μg) by the TransAM STATs family kits from Active Motif (Carlsbad, Calif.). All assays were performed following the manufactory instruction after the nuclear protein extraction.

STAT5b-SH2 domain = molecular target: T2, STAT5b-SH2 domain (Homo sapiens, UniProt P51692); test: Competitive fluorescence polarization (FP) assay, STAT5b-SH2 domain
T2 sequence (P51692 136-703): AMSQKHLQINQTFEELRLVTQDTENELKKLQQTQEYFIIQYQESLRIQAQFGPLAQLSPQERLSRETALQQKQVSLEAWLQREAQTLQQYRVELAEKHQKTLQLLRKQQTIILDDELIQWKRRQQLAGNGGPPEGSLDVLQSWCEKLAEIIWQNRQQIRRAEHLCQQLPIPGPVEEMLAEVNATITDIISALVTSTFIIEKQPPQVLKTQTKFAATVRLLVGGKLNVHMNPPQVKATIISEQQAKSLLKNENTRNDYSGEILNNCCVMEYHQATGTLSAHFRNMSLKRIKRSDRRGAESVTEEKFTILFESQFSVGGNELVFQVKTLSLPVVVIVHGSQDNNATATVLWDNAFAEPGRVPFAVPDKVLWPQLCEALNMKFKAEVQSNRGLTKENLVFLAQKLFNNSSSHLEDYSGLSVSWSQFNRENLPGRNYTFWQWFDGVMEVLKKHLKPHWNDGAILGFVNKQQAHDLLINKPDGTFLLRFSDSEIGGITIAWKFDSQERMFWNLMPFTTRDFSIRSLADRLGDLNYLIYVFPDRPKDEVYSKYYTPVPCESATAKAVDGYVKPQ
Procedure: The ChemBioNet fragment collection composed in accordance with the substructure composition of the World Drug Index (WDI) was screened both for enhancing and inhibiting fragments of the phosphopeptide-STAT5 interaction.
The clone for Stat5b expression was kindly provided by Thorsten Berg (MPI, Martinsried). Expression of that truncated version of Stat5b (aa 136-703) cloned into a modified pQE70, with N-terminal MBP-tag and C-terminal His-tag was conducted on autoinduction medium (overnight express/Novagen). Cells were grown to an optical density (O.D.) of 0.3 at 37° C., then the temperature was reduced to 20° C. for further 48 h of expression. […] The protein was purified by Ni-chelating chromatography followed by gel filtration (Superdex 200/10 mM HEPES pH 7.8, 100 mM NaCl, 1 mM EDTA, 1 mM DTT, 10% glycerol). A yield of 15 mg MBP-Stat5b-His per liter of culture was obtained and aliquots (200 μl of 3.2 mg/ml) were quick-frozen and stored at −80° C., ready for use.
17000 compounds from the (FMP) ChemBioNet library were tested in a competitive-based fluorescence polarization (FP) assay to investigate the ability of compounds to bind to STAT5b-SH2 domain by displacing respective fluorophore-labeled peptides (5-carboxyfluorescein-GY (PO3H2) LSLPPW-NH2). The peptide purity was >95% and the screening were performed at room temperature. The final concentration of buffer components used was 10 mM HEPES (pH 7.5), 1 mM EDTA, 0.1% Igepal CA-630, 50 mM NaCl, and 5% DMSO. The final concentration of protein used was at 65 nM which correspond to the dissociation constants (Kd) for the individual protein-peptide interactions in assay buffer. The protein was first added to the black 384 well plate (Corning 3676) followed by test compounds and fluorophore-labeled peptide. The plates were centrifuged, and measured using Safire^2 well plate reader (Tecan, Crailsheim, Germany) after 15 minutes incubation at room temperature. […] For the analysis of the data GraphPad Prism 5 was used. Ligand efficiencies (LE) were calculated using equation derived as followed. LE=−ΔG°/HA with (ΔG°) is the standard free energy of binding in KJ and HA is the number of non-hydrogen atoms.

[3] = molecular target: full length human STAT3 protein (Homo sapiens, UniProt P40763); test: FP specificity assay, STAT3; type: binding; conditions: concentrations up to 1 mM
full length human STAT3 protein, sequence (P40763 whole entry): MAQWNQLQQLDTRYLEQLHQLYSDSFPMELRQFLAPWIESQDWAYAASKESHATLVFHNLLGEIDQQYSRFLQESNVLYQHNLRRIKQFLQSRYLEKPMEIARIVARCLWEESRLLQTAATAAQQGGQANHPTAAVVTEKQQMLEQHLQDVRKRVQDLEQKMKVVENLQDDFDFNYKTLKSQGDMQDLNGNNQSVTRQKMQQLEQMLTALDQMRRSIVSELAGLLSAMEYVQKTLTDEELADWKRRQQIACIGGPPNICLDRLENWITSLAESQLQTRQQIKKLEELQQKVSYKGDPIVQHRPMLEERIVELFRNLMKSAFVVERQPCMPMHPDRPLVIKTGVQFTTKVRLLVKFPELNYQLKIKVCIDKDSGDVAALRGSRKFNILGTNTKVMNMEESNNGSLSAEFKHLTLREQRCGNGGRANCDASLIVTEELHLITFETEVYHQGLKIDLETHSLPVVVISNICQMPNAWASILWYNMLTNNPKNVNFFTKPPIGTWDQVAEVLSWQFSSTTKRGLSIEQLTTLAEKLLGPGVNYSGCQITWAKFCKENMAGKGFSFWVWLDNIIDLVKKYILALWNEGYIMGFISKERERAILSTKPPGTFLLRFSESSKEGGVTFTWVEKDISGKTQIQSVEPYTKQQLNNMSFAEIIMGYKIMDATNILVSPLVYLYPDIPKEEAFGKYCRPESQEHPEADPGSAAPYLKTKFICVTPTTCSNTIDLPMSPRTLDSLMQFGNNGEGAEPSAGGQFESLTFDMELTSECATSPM
Excerpt: Cell Lines and Culture Condition

inhibition of SHP2 [1]: No inhibition
STAT5 dimer DNA-binding activity (STAT5 dimer): inhibits
Ki (STAT5b-SH2 domain): 1400 ± 500 nM
ligand efficiency (STAT5b-SH2 domain): 2.23 kJ/mol per non-hydrogen atom
LE (STAT5b-SH2 domain; Table 1, ligand efficiency): 2.23 kJ/mol* atom#
binding to the SH2 domain of STAT3 [3]: no binding
Compound: O=C(O)c1nonc1NCn1cnnn1 [Compound 3, 4-((1H-Tetrazol-1-yl)-methylamino)-furazan-3-carboxylic Acid]
inhibition of protein-dimer-DNA complex formation [2]: more potent inhibitor than compounds (15) and (6)

Reference: US10683286B2, “Furazan-3-carboxylic acid derivatives and use thereof in treatment of cancer” (FREIE UNIVERSITAET BERLIN, priority 2016, dated 2020)
